Assay results: the supplement of paper PMC13380429
Counter-ions that a name gives are not always drawn.

Assays:
Conditions in all cases: 72 h
U2OS [1] = test: cell viability relative to DMSO; higher = less toxic
Calu-3 [2] = test: as above
Caco-2 [3] = test: as above
Vero E6 [4] = test: as above
HepG2 [5] = test: as above
U2OS [6] = test: drug sensitivity score (DSS) for viability; higher = more toxic; extreme values may be limits of the assay
Calu-3 [7] = test: as above
Caco-2 [8] = test: as above
Vero E6 [9] = test: as above
HepG2 [10] = test: as above
U2OS [11] = test: relative viability EC50 (midpoint between 100% and the lowest measured viability); higher = less toxic
Calu-3 [12] = test: as above
Caco-2 [13] = test: as above
Vero E6 [14] = test: as above
HepG2 [15] = test: as above

| Structure (SMILES) | cell viability (U2OS [1]; 1 nM) | cell viability (U2OS [1]; 10 nM) | cell viability (U2OS [1]; 100 nM) | cell viability (U2OS [1]; 1000 nM) | cell viability (U2OS [1]; 10000 nM) | cell viability (Calu-3 [2]; 1 nM) | cell viability (Calu-3 [2]; 10 nM) | cell viability (Calu-3 [2]; 100 nM) | cell viability (Calu-3 [2]; 1000 nM) | cell viability (Calu-3 [2]; 10000 nM) | cell viability (Caco-2 [3]; 1 nM) | cell viability (Caco-2 [3]; 10 nM) | cell viability (Caco-2 [3]; 100 nM) | cell viability (Caco-2 [3]; 1000 nM) | cell viability (Caco-2 [3]; 10000 nM) | cell viability (Vero E6 [4]; 1 nM) | cell viability (Vero E6 [4]; 10 nM) | cell viability (Vero E6 [4]; 100 nM) | cell viability (Vero E6 [4]; 1000 nM) | cell viability (Vero E6 [4]; 10000 nM) | cell viability (HepG2 [5]; 1 nM) | cell viability (HepG2 [5]; 10 nM) | cell viability (HepG2 [5]; 100 nM) | cell viability (HepG2 [5]; 1000 nM) | cell viability (HepG2 [5]; 10000 nM) | drug sensitivity score (U2OS [6]) | drug sensitivity score (Calu-3 [7]) | drug sensitivity score (Caco-2 [8]) | drug sensitivity score (Vero E6 [9]) | drug sensitivity score (HepG2 [10]) | relative viability EC50 (U2OS [11]) | relative viability EC50 (Calu-3 [12]) | relative viability EC50 (Caco-2 [13]) | relative viability EC50 (Vero E6 [14]) | relative viability EC50 (HepG2 [15]) |
| --- | --- | --- | --- | --- | --- | --- | --- | --- | --- | --- | --- | --- | --- | --- | --- | --- | --- | --- | --- | --- | --- | --- | --- | --- | --- | --- | --- | --- | --- | --- | --- | --- | --- | --- | --- |
| c1ccc2nc(C3=NCCN3)ccc2c1 [BU-224] | 99.8% | 98.8% | 99.2% | 95.6% | 98.8% | 98.5% | 106% | 106% | 89.3% | 119% | 97.7% | 96.9% | 101% | 88.7% | 90.2% | 98.7% | 99.5% | 97.3% | 102% | 99% | 104% | 94.3% | 94.2% | 99.8% | 87.2% | 0 | 0 | 0.3 | 0 | 0.1 | > 10 µM | > 10 µM | > 10 µM | > 10 µM | > 10 µM |
| CO/N=C(\C(=O)N[C@@H]1C(=O)N2C(C(=O)O)=C(Cn3ccc(=N)n3CCO)CS[C@H]12)c1csc(N)n1 [Cefoselis sulfate] | 96.6% | 103% | 93.8% | 102% | 101% | 95.8% | 100% | 95.7% | 96.1% | 104% | 106% | 97.6% | 90.7% | 106% | 93.8% | 103% | 102% | 105% | 97.2% | 101% | 102% | 116% | 91.4% | 103% | 101% | 0 | 0 | 0 | 0 | 0 | > 10 µM | > 10 µM | > 10 µM | > 10 µM | > 10 µM |
| O=[N+]([O-])c1cc2nc(O)c(O)nc2cc1[N+](=O)[O-] [DNQX] | 104% | 96.8% | 101% | 93.6% | 98% | 96.8% | 96.3% | 100% | 97.4% | 94.3% | 86.4% | 94.2% | 97.4% | 89.3% | 94.4% | 86.8% | 96.1% | 89.2% | 95.8% | 102% | 102% | 101% | 95.6% | 101% | 102% | 0 | 0 | 0 | 0 | 0 | > 10 µM | > 10 µM | > 10 µM | > 10 µM | > 10 µM |
| CCC(C)(C)C(=O)C(=O)N1CCC[C@H]1C(=O)OCCCc1cccnc1 [GPI-1046] | 97.6% | 95.3% | 91.7% | 102% | 104% | 101% | 88.9% | 106% | 103% | 113% | 96.5% | 96% | 89.5% | 105% | 105% | 100% | 96.4% | 100% | 91.6% | 96.9% | 86.9% | 98.6% | 108% | 90.7% | 91.4% | 0 | 0 | 0 | 0 | 0.6 | > 10 µM | > 10 µM | > 10 µM | > 10 µM | > 10 µM |
| O=C1S/C(=C\c2ccc(OCc3cccc(B(O)O)c3)cc2)C(=O)N1Cc1ccc(F)cc1 [HA-130] | 95.6% | 97.5% | 94.7% | 98.7% | 90.6% | 95.2% | 110% | 99.6% | 105% | 93.7% | 93.4% | 96% | 97% | 97.6% | 92.8% | 95.5% | 97.2% | 103% | 91.9% | 93.4% | 102% | 98.7% | 94.8% | 101% | 103% | 0 | 0 | 0 | 0 | 0 | > 10 µM | > 10 µM | > 10 µM | > 10 µM | > 10 µM |
| CCc1ccc(OCc2ccccc2C(=O)Nc2ccc3nc(C)cc(N)c3c2)cc1 [JTC-801] | 96% | 99.2% | 96.6% | 97.8% | -0.1% | 97.7% | 102% | 100% | 100% | 0.2% | 97.8% | 94.5% | 90.4% | 91.9% | 0.6% | 101% | 99.7% | 102% | 94.1% | -0.1% | 114% | 95.6% | 102% | 89% | -0.1% | 5.9 | 5.6 | 6.8 | 6.4 | 7.4 | 3 µM | 3.18 µM | 2.49 µM | 2.69 µM | 2.25 µM |
| O=C(OC(C(F)(F)F)C(F)(F)F)N1CCC(C(O)(c2ccc3c(c2)OCO3)c2ccc3c(c2)OCO3)CC1 [KML29] | 103% | 99.8% | 101% | 95.5% | 95.5% | 109% | 105% | 98% | 108% | 92.6% | 94.6% | 99.6% | 117% | 97% | 106% | 94% | 96.2% | 97.8% | 98.3% | 91.7% | 96.7% | 96.1% | 94.1% | 106% | 98.8% | 0 | 0 | 0 | 0 | 0 | > 10 µM | > 10 µM | > 10 µM | > 10 µM | > 10 µM |
| O=C(O)[C@@H]1C[C@@H](O)CN1 [L-hydroxyproline] | 95.9% | 102% | 100% | 95.2% | 102% | 95% | 94.4% | 93.5% | 96.9% | 106% | 80.5% | 92.4% | 100% | 96.1% | 95.8% | 104% | 114% | 99.5% | 105% | 94.4% | 101% | 112% | 99.7% | 108% | 90.8% | 0 | 0 | 0 | 0 | 0 | > 10 µM | > 10 µM | > 10 µM | > 10 µM | > 10 µM |
| Cc1sc(C)c(C(=O)NC2(c3ccc(C(=O)O)cc3)CC2)c1Cc1ccc(C(F)(F)F)cc1 [MK-2894] | 93.1% | 99.8% | 100% | 102% | 106% | 99.3% | 107% | 103% | 101% | 109% | 94.8% | 95.7% | 89% | 101% | 101% | 93.7% | 92.9% | 96.5% | 93.6% | 85.9% | 104% | 99.9% | 111% | 96.4% | 96.4% | 0 | 0 | 0 | 0 | 0 | > 10 µM | > 10 µM | > 10 µM | > 10 µM | > 10 µM |
| COc1ccccc1C(=O)Nc1cccc(NC(=O)c2cccc(C)c2)c1 [ML365] | 107% | 102% | 103% | 98.5% | 99% | 99% | 98.4% | 96.2% | 98.4% | 94.3% | 97.8% | 101% | 97.4% | 92.8% | 86% | 102% | 100% | 101% | 98.2% | 95% | 113% | 98.7% | 91.6% | 116% | 85.8% | 0 | 0 | 0.3 | 0 | 0 | > 10 µM | > 10 µM | > 10 µM | > 10 µM | > 10 µM |
| Cc1cc(C)c(NC(=O)C2CC3CCC2C3)c(C)c1 (stereo not given) [ML-213] | 105% | 100% | 99.8% | 103% | 104% | 105% | 96.5% | 92% | 106% | 95.3% | 107% | 82.4% | 93.7% | 98.4% | 99.8% | 93.3% | 98.4% | 96.3% | 90.3% | 100% | 103% | 104% | 99.9% | 104% | 101% | 0 | 0 | 0 | 0 | 0 | > 10 µM | > 10 µM | > 10 µM | > 10 µM | > 10 µM |
| S=C=Nc1cccc(NC(=S)NCCCCNC(=S)Nc2cccc(N=C=S)c2)c1 [MRS-2578] | 95.9% | 95.8% | 99.5% | 97.2% | 104% | 90.7% | 93.6% | 109% | 90.2% | 107% | 100% | 91.2% | 99.7% | 98.4% | 101% | 98.3% | 98.8% | 94.2% | 99.5% | 98.7% | 107% | 104% | 110% | 97.7% | 103% | 0 | 0 | 0 | 0 | 0 | > 10 µM | > 10 µM | > 10 µM | > 10 µM | > 10 µM |
| COC(=O)CN1CN(c2ccccc2)C2(CCN(Cc3cccc4ccccc34)CC2)C1=O [NNC-63-0532] | 100% | 96.1% | 94.9% | 102% | 98.7% | 98.2% | 106% | 97.7% | 114% | 102% | 102% | 96.3% | 95% | 99.7% | 96.9% | 90.2% | 97.3% | 96.5% | 90.7% | 103% | 93.5% | 104% | 99.6% | 95% | 99.8% | 0 | 0 | 0 | 0 | 0 | > 10 µM | > 10 µM | > 10 µM | > 10 µM | > 10 µM |
| C[C@]12CC[C@H]3[C@@H](CCC4=CC(=O)CC[C@@H]43)[C@@H]1CC[C@@H]2O [Nandrolone] | 98.7% | 96.1% | 98.5% | 96.5% | 96.7% | 95.7% | 102% | 102% | 104% | 99.4% | 92% | 91.3% | 98.7% | 103% | 95% | 91.6% | 104% | 89.9% | 96.2% | 103% | 102% | 101% | 96.9% | 108% | 113% | 0 | 0 | 0 | 0 | 0 | > 10 µM | > 10 µM | > 10 µM | > 10 µM | > 10 µM |
